Results reported in ChEMBL document CHEMBL1201862, “PubChem BioAssay data set” (2004).
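Each compound was tested at five concentrations against cells in 96-well plates for 48 hours. At the GI50, growth is halved.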 Calls of active or inactive are those of the source. No stated cut-off is given here; in the data, active = GI50 up to about 1.1 µM and inactive = higher.

How the values were obtained:
Experiment in all cases: growth of human tumour cells (NCI), 48 h
A498 = system: A498
COLO 205 = system: COLO 205
EKVX = system: EKVX
HL-60 = system: HL-60
K562 = system: K562
M14 = system: M14
Malme-3M = system: Malme-3M
NCI-H522 = system: NCI-H522
NCI/ADR-RES = system: NCI/ADR-RES
OVCAR-4 = system: OVCAR-4
OVCAR-8 = system: OVCAR-8
SK-OV-3 = system: SK-OV-3
SNB-75 = system: SNB-75
SR = system: SR
UACC-257 = system: UACC-257
UO-31 = system: UO-31
HOP-92 = system: HOP-92
MDA-N = system: MDA-N
PC-3 = system: PC-3

SMILES | GI50 (A498) | GI50 (COLO 205) | GI50 (EKVX) | GI50 (HL-60) | GI50 (K562) | GI50 (M14) | GI50 (Malme-3M) | GI50 (NCI-H522) | GI50 (NCI/ADR-RES) | GI50 (OVCAR-4) | GI50 (OVCAR-8) | GI50 (SK-OV-3) | GI50 (SNB-75) | GI50 (SR) | GI50 (UACC-257) | GI50 (UO-31) | GI50 (HOP-92) | GI50 (MDA-N) | GI50 (PC-3)
O=c1[nH]c2ccc([N+](=O)[O-])c(Cl)c2c2ccccc12 | 13.2 µM (inactive) | 5.18 µM (inactive) | 5.9 µM (inactive) | 2.35 µM (inactive) | 0.634 µM (active) | 4.81 µM (inactive) | 11.6 µM (inactive) | 3.13 µM (inactive) | 4.98 µM (inactive) | 10.7 µM (inactive) | 1.29 µM (inactive) | 1.66 µM (inactive) | 9.04 µM (inactive) | 1.85 µM (inactive) | 2.42 µM (inactive) | 9.33 µM (inactive) | – | – | –
CC1(C)[C@H]2Cc3cc4nc5ccccn5c4cc3[C@@H]1C2 | – | 18.4 µM (inactive) | 15.9 µM (inactive) | 22.4 µM (inactive) | 19.8 µM (inactive) | 19.8 µM (inactive) | 12.4 µM (inactive) | 4.58 µM (inactive) | 18.2 µM (inactive) | 12 µM (inactive) | 14.6 µM (inactive) | 17.3 µM (inactive) | 13.6 µM (inactive) | – | 17.6 µM (inactive) | 14 µM (inactive) | 14.5 µM (inactive) | 17.3 µM (inactive) | 17.9 µM (inactive)
C/C(=N/N)c1ccc2[nH]c3c(C)cc([N+](=O)[O-])c(C)c3c2c1 | – | 11.5 µM (inactive) | 22.2 µM (inactive) | > 100 µM (inactive) | 2.93 µM (inactive) | 15 µM (inactive) | 4.33 µM (inactive) | 8.51 µM (inactive) | – | 14.8 µM (inactive) | 5.3 µM (inactive) | – | 22.9 µM (inactive) | 5.83 µM (inactive) | 18.6 µM (inactive) | 10.5 µM (inactive) | – | – | –
CC1(O)C(C)(O)C2(C)O[Te]3(OC12C)OC1(C)C(C)(O)C(C)(O)C1(C)O3 (configuration not stated) | > 10 µM (inactive) | > 100 µM (inactive) | > 100 µM (inactive) | 10.6 µM (inactive) | 9.79 µM (inactive) | > 100 µM (inactive) | 96.2 µM (inactive) | 17.8 µM (inactive) | – | 24.3 µM (inactive) | 16.1 µM (inactive) | > 10 µM (inactive) | > 100 µM (inactive) | 17.2 µM (inactive) | > 100 µM (inactive) | 27.5 µM (inactive) | 31 µM (inactive) | – | –
CCN(CCO)CC1CCCC2CCCCC21 (configuration not stated) | > 100 µM (inactive) | > 100 µM (inactive) | > 100 µM (inactive) | – | 46.5 µM (inactive) | > 100 µM (inactive) | > 100 µM (inactive) | > 100 µM (inactive) | > 100 µM (inactive) | > 100 µM (inactive) | > 100 µM (inactive) | > 100 µM (inactive) | > 100 µM (inactive) | – | > 100 µM (inactive) | > 100 µM (inactive) | > 100 µM (inactive) | > 100 µM (inactive) | > 100 µM (inactive)
c1ccc(CN2CCC(Nc3ccccc3)(c3nnnn3Cc3ccccc3)CC2)cc1 | 17.2 µM (inactive) | 11.6 µM (inactive) | 23.8 µM (inactive) | 11.5 µM (inactive) | – | 16.1 µM (inactive) | 18.5 µM (inactive) | – | 24.5 µM (inactive) | 29.6 µM (inactive) | 32.8 µM (inactive) | 70.1 µM (inactive) | 22.7 µM (inactive) | 8.77 µM (inactive) | 14.1 µM (inactive) | 6.12 µM (inactive) | 5.37 µM (inactive) | – | –
COc1cc2c(cc1OCCCCOc1cc3nc(C)nc(Cl)c3cc1OC)N=C[C@@H]1CCCN1C2=O | – | 19.1 µM (inactive) | 4.73 µM (inactive) | 2.48 µM (inactive) | 2.07 µM (inactive) | 1.88 µM (inactive) | 1.79 µM (inactive) | 0.637 µM (active) | 2.27 µM (inactive) | 2.84 µM (inactive) | 3.01 µM (inactive) | 30.4 µM (inactive) | 1.46 µM (inactive) | 0.57 µM (active) | 2.29 µM (inactive) | 1.88 µM (inactive) | 2.02 µM (inactive) | – | 3.11 µM (inactive)
N#CC(=S)Nc1cccc(Cl)c1 | 34.1 µM (inactive) | 36.1 µM (inactive) | 41.1 µM (inactive) | 33.2 µM (inactive) | 19.5 µM (inactive) | 27.5 µM (inactive) | 30.3 µM (inactive) | – | 30.7 µM (inactive) | 42.4 µM (inactive) | 32.3 µM (inactive) | 33.3 µM (inactive) | 23.9 µM (inactive) | – | 37.2 µM (inactive) | – | 35.6 µM (inactive) | 44.3 µM (inactive) | 32.7 µM (inactive)
CC1CCC2(OC1)OC1CC3C4CC=C5CC(OC6OC(CO)C(OC7OC(C)C(OC8OC(C)C(O)C(O)C8O)C(O)C7O)C(O)C6OC6OC(C)C(O)C(O)C6O)CCC5(C)C4CCC3(C)C1C2C (configuration not stated) | 0.291 µM (active) | 1.28 µM (inactive) | 0.757 µM (active) | 0.239 µM (active) | 0.142 µM (active) | 1.05 µM (active) | 0.363 µM (active) | 0.643 µM (active) | – | 0.275 µM (active) | 0.326 µM (active) | 1.07 µM (active) | 0.372 µM (active) | 0.0196 µM (active) | 0.74 µM (active) | 0.216 µM (active) | 0.0703 µM (active) | 0.4 µM (active) | 0.724 µM (active)
CC(=O)OCCCCN1C(=O)CSc2ccccc21 | > 100 µM (inactive) | – | > 100 µM (inactive) | > 100 µM (inactive) | – | – | – | > 100 µM (inactive) | – | > 100 µM (inactive) | – | > 100 µM (inactive) | > 100 µM (inactive) | > 100 µM (inactive) | > 100 µM (inactive) | 76.7 µM (inactive) | > 100 µM (inactive) | > 100 µM (inactive) | > 100 µM (inactive)
CN1c2ccccc2C(=O)NC12CCNCC2 | > 100 µM (inactive) | > 100 µM (inactive) | > 100 µM (inactive) | > 100 µM (inactive) | > 100 µM (inactive) | > 100 µM (inactive) | > 100 µM (inactive) | – | > 100 µM (inactive) | > 100 µM (inactive) | > 100 µM (inactive) | > 100 µM (inactive) | > 100 µM (inactive) | > 100 µM (inactive) | > 100 µM (inactive) | > 100 µM (inactive) | > 100 µM (inactive) | – | –
CCOP(=O)(/C=C/n1cc(C)c(=O)[nH]c1=O)OCC | > 100 µM (inactive) | > 100 µM (inactive) | > 100 µM (inactive) | > 100 µM (inactive) | > 100 µM (inactive) | > 100 µM (inactive) | – | > 100 µM (inactive) | > 100 µM (inactive) | > 100 µM (inactive) | > 100 µM (inactive) | > 100 µM (inactive) | > 100 µM (inactive) | – | > 100 µM (inactive) | – | – | > 100 µM (inactive) | > 100 µM (inactive)
O=S(=O)(c1cc(Cl)ccc1Cl)n1ccnc1 | 31 µM (inactive) | 17.9 µM (inactive) | 61.2 µM (inactive) | 28.4 µM (inactive) | 34 µM (inactive) | 30.3 µM (inactive) | 31.8 µM (inactive) | 27.4 µM (inactive) | 20.2 µM (inactive) | 43 µM (inactive) | 35.4 µM (inactive) | > 100 µM (inactive) | 41.8 µM (inactive) | 25.4 µM (inactive) | 26.7 µM (inactive) | 85.5 µM (inactive) | 39.9 µM (inactive) | – | 47.8 µM (inactive)
